Laboratory results from patent US20040022734A1, “Dihydroporphyrin derivatives and their uses” (priority 2000, published 2004).

Experiments:
C6 cells [1] = assay: Toxicity of SIMO1 on non-irradiated C6 cells (MTT count); assay type: cell-based
Description: C6 cells were cultured in flasks of 25 cm^2 (Polylabo, Strasbourg, France) in an RPMI medium supplemented with 10% (V/V) of fetal calf serum (FCS), 100 units of penicillin mL^-1, […] of streptomycin and 2 mM of glutamine. The cells were replicated by dispersion culturing with 0.025% of trypsin in 0.02% ethylene-diaminotetracetic acid (EDTA) for a contact time of 2 minutes and returned to adhere at a dilution of 1:3, which maintain the cells in the exponential phase of growth. The cells were verified on a regular basis by contamination of the mycoplasms. The cells thus cultivated were subjected to a photodynamic treatment. Aliquots (11 μl) of the photosensitizing solution SIMO1 were added to C6 cells adhered in wells of plates with 96 wells after trypsonation, as described above. The cellular concentration was 5.10^4 cells/ml^-1 (100 μl per well). The final concentration of the solutions of SIMO1 was comprised within the range of 0.5 to 50 μg/ml. Immediately after addition of the photosensitizer SIMO1, the plates of cells were held in complete darkness till the time of counting, except for a laser irradiation of the cells treated with PDT. The fresh medium containing FCS but free from photosensitizer was prepared before laser irradiation. A laser with a diode at 650 nm was used. The power of the end of the fiber was adjusted, by using a device for measuring power (Coherent, France), at 500 mW. The light was transmitted to the target by an optical fiber at a distance of 20 mm so as to irradiate the cells in the wells 6 mm in diameter within a single field providing an illumination of all of the region. The time of exposure was 13 seconds per well at 650 nm, supplying an energy density of 20 J/cm^2. The cells were incubated with SIMO1 for 5 or 20 hours. For phototoxicity tests, the cells were washed and the medium was replaced immediately before laser irradiation. […] The optical density of each well of the microplates was then read at 570 nm by means of a […] […]

[2] = tested on: cellular tumor HT29 obtained initially from human colorectal adenocarcinoma; assay: In vivo phototoxicity: growth of HT29 tumor grafts in nude mice after injection and laser irradiation; details: for Activity on tumor growth, SIMO1 versus m-THPC: 2 mg/kg intra-peritoneal, irradiation 6 hours and 12 hours after injection, FIG. 5
Description: To establish these conclusions, the following procedure was used: Swiss male nude/nude mice aged 7 to 9 weeks (weight range 25-35 g) were obtained from Iffa-Credo (L'arbresle, France).
The test method is that of the cellular tumor HT29 obtained initially from human colorectal adenocarcinoma.
The tumor grafts were obtained as follows: nonnecrotic solid tumor tissues (diameter 1 to 2 cm) were removed immediately after death of the donor mouse and then mechanically crushed in 1 ml of a 0.9% saline solution. This solution (0.2 ml) was injected sub-cutaneously into the rear paw of each mouse. This tumor was used one week later, when its diameter was 18-20 mm. […] The wavelength was illumination was selected between 652-653 nm.
The light source was a diode laser at 652 nm.
The luminous density was maintained below 0.3 W.cm^−2, at doses at which the thermal effects are indetectable. A single irradiation was carried out and the time of exposure was calculated as a function of the diameter of the tumor to obtain an energy density of 300 J/cm^−2 at a predetermined constant light density.
Each day, the index of tumor growth was measured by using a slide foot, the principal orthogonal diameters being added and divided by a factor of 2.
A statistical characteristic of the growth index between treated and control mice (without light or SIMO1) was carried by using the Student test.

C6 cells [3] = assay: Intracellular localization and pharmacokinetics in C6 cells by fluorescent imaging; assay type: cell-based; details: FIG. 3; for Incorporation at one hour of incubation (intracellular fluorescence): 1 hour
Description: So as to confirm the potential use of the mentioned compounds for the production of a photosensitive composition administrable to a living creature and useful as an agent adapted to give rise, under the influence of irradiation, to cytolysis or necrosis at least partially of at least one target region of the human or animal body, a visualization was conducted of the localization in vitro of the SIMO1 molecule, as well as the determination of the pharmacokinetics compared to m-THPC, by fluorescent imaging so as to confirm that the mentioned compounds were capable of penetrating the cells. Thus, C6 cells were seeded at a rate of 10^5 cells/ml on circular glass plates after trypsinization. After 24 hours, cells were incubated with SIMO1 (10 μg/ml) at 37° C. for 3 hours and then washed with PBS (pH 7.2). Fluorescence analysis of SIMO1 (emitting at 650 nm) was carried out after excitation of 450 nm to 480 nm with a 150 watt Xenon lamp by using a black and white video camera with very sensitive detection of photons (Kappa CF 8/4; Fischer Scientific S.A., France), connected to an optical microscope (Olympus BX 40, France) provided with an oil immersion objective magnifying 100 times.

C6 cells [4] = assay: Phototoxicity of SIMO1 on C6 cells (laser irradiation, MTT count); assay type: cell-based; details: 20 joules/cm^2 diode laser
Description: C6 cells were cultured in flasks of 25 cm^2 (Polylabo, Strasbourg, France) in an RPMI medium supplemented with 10% (V/V) of fetal calf serum (FCS), 100 units of penicillin mL^−1, […] of streptomycin and 2 mM of glutamine.
The cells were replicated by dispersion culturing with 0.025% of trypsin in 0.02% ethylene-diaminotetracetic acid (EDTA) for a contact time of 2 minutes and returned to adhere at a dilution of 1:3, which maintain the cells in the exponential phase of growth. The cells were verified on a regular basis by contamination of the mycoplasms.
The cells thus cultivated were subjected to a photodynamic treatment. Aliquots (11 μl) of the photosensitizing solution SIMO1 were added to C6 cells adhered in wells of plates with 96 wells after trypsonation, as described above. The cellular concentration was 5.10^4 cells/ml^−1 (100 μl per well). The final concentration of the solutions of SIMO1 was comprised within the range of 0.5 to 50 μg/ml. Immediately after addition of the photosensitizer SIMO1, the plates of cells were held in complete darkness till the time of counting, except for a laser irradiation of the cells treated with PDT. The fresh medium containing FCS but free from photosensitizer was prepared before laser irradiation. […]
The optical density of each well of the microplates was then read at 570 nm by means of a Uniskan Titertack (Flow Laboratories, Puteaux, France). […]

[5] = In vivo spectrofluorimetric measurement of incorporation and retention in muscle, skin and tumor of mice grafted with HT-29; details: 2 mg/kg
Description: For these tests, the following was the procedure: spectrofluorimetric measurements were carried out on mice grafted with HT-29 at different intervals of time after injection of 2 mg/kg^−1 of m-THPC or SIMO1. The tested times were 3, 6, 12, 24, 48 and 144 hours on mice.
The level of fluorescence were recorded in different tissues, namely the muscle, the skin and the tumor. The measurements were taken by using an optical fiber placed directly in contact with the tissues. At least four spectra per tissue and per mouse were recorded (at least five mice were used for each experimental condition). Muscle, skin and tumor were successively studied.
The emission spectra of fluorescence of untreated mice tissue were recorded at three separate times so as to estimate the intermouse variations. The values of fluorescent intensity mentioned in FIG. 6 correspond for each organ to the result of the difference between the value of fluorescence obtained in a treated mouse and the value of fluorescence recorded in the control group. The results of spectrofluorometric measurement in vivo were expressed in beats per second (arbitrary unit).

Compound	DL50, toxicity (non-irradiated) (C6 cells [1])	SIMO1 toxicity (non-irradiated) (C6 cells [1]; C6 cells, 5 hours of incubation, no irradiation)	Concentration short of which harmless in the absence of luminous irradiation (C6 cells [1]; C6 cells, no irradiation)	Activity on tumor growth, SIMO1 versus m-THPC [2]	Retardation between intra-peritoneal injection and laser irradiation giving the most marked effects ([2]; 5 mg/kg intra-peritoneal, 300 J/cm^2, FIG. 4)	Slowing of growth of the tumor ([2]; HT-29 grafted nude mice, 5 mg/kg intra-peritoneal, 12 hours between injection and irradiation, 300 J/cm^2 at 652 nm, twelve days after treatment)	Growth of the tumor compared to the untreated control group ([2]; all tested conditions: irradiation 2, 6, 12, 24, 48 hours after 5 mg/kg intra-peritoneal, 300 J/cm^2)	Incorporation at one hour of incubation (intracellular fluorescence) (C6 cells [3])	Time of maximum intracellular concentration (fluorescence) after incubation (C6 cells [3])	DL50, phototoxic treatment (C6 cells [4]; 5 hours of incubation)	DL50, phototoxic treatment (C6 cells [4]; 20 hours of incubation)	Detection of photosensitive agent in tissues after 48 hours ([5]; 48 hours after injection)	Retention time in all the tissues compared to m-THPC ([5]; muscle, skin and tumor, FIG. 6)	Detection of photosensitive agent in tissues 144 hours after injection ([5]; 144 hours after injection)
2,3-dihydro-5, 15-Bis(3,5-dihydroxy-1-phenyl)-prohyrin [SIMO1]	29 µg/mL	no toxicity was detected	about 20 μg/ml	comparable activity	12 h	40%	reduction of growth of the tumor	high incorporation	3 h	1.75 µg/mL	0.45 µg/mL	no photosensitive agent was detected	shorter	
Oc1cccc(-c2c3nc(c(-c4cccc(O)c4)c4ccc([nH]4)c(-c4cccc(O)c4)c4nc(c(-c5cccc(O)c5)c5ccc2[nH]5)CC4)C=C3)c1 [m-THPC, reference compound]				comparable activity				small incorporation	increases to 6 hours					still detectable
